According to patent US8889173B2, “Alpha adrenergic receptor agonists for treatment of pain and/or inflammation” (Warsaw Orthopedic, Inc., priority 2008, dated 2014):

Assays:
[1] = test system: rat Chronic Constriction Injury model (Bennett Model); assay: Hargreaves test of thermal hyperalgesia (thermal paw withdrawal latency) in rat chronic constriction injury model; type: in vivo, Wistar rat
Source text: (§1) The inventors evaluated the efficacy of a various alpha-2-adrenergic receptor agonists and compared them against saline in the rat Chronic Constriction Injury model (i.e., Bennett Model) using Wistar rats. […] The doses given would mimic those achievable by a continuous release drug depot containing a biodegradable polymer (7 rats in each group).
(§2) Each group received the treatment indicated above for total of 15 days and subjected to the following two tests: (1) the Hargreaves test on days 7 and 14; and (2) the von Frey test on days 8 and 15.
(§3) Results from another rat chronic constriction injury model study similar to that discussed in Example 5, except some drug compositions having predominantly alpha 1 agonist activity and some drug compositions having predominantly alpha 2 agonist activity were given as indicated in the table below. The doses given would mimic those achievable by a continuous release drug depot containing a biodegradable polymer (7 rats in each group).
(§4) Each group received the treatment indicated above for total of 14 days and the following two tests: (1) the Hargreaves test on days 7 and 14; and (2) the von Frey test on days 8 and 15.

[2] = test system: rat Chronic Constriction Injury model (Bennett Model); assay: von Frey monofilament test of mechanical allodynia (mechanical threshold) in rat chronic constriction injury model; type: in vivo, Wistar rat
Source text: as §1, §2, §3, §4

[3] = 5 mg/kg subcutaneous every day for 15 days, day 15, vs saline
[4] = 100 micrograms/kg subcutaneous every day for 15 days, days 7 and 14, FIG. 36

Clc1cccc(Cl)c1N=C1NCCN1 [clonidine, 2,6-dichloro-N-2-imidazolidinyldenebenzenamine]
pain behavioral response for thermal hyperalgesia ([1]; 0.02 mg/kg subcutaneous every day for 15 days, days 7 and 14): statistically significant result of decreasing pain responses
pain behavioral response for mechanical allodynia ([2]; 0.02 mg/kg subcutaneous every day for 15 days, day 15, vs saline, FIG. 35): statistically significant results of decreasing pain responses
pain behavioral response (measured as a percentage of baseline) for mechanical allodynia ([2]; 0.02 mg/kg/day subcutaneously, compared to unloaded polymer depots, FIG. 4): reduced the behavioral response

N=C(N)N/N=C/c1c(Cl)cccc1Cl [guanabenz]
pain behavioral response for thermal hyperalgesia ([1]; 1 mg/kg subcutaneous every day for 15 days, day 7, FIG. 37): statistically significant result of decreasing pain responses
pain behavioral response for mechanical allodynia ([2]; 1 mg/kg subcutaneous every day, day 8, vs saline, FIG. 38): decreased mechanical allodynia
pain behavioral response for mechanical allodynia [2, 3]: decreased mechanical allodynia

N=C(N)NC(=O)Cc1c(Cl)cccc1Cl [guanfacine]
pain behavioral response for thermal hyperalgesia ([1]; 5 mg/kg subcutaneous every day for 15 days, days 7 and 14, FIG. 36): statistically significant result of decreasing pain responses
pain behavioral response for mechanical allodynia [2, 3]: statistically significant results of decreasing pain responses

Cc1cccc(C(C)c2cnc[nH]2)c1C (centres unmarked) [medetomidine]
pain behavioral response for thermal hyperalgesia [1, 4]: statistically significant result of decreasing pain responses
pain behavioral response for thermal hyperalgesia ([1]; 200 micrograms/kg subcutaneous every day for 15 days, day 14, FIG. 36): statistically significant result of decreasing pain responses
pain behavioral response for mechanical allodynia ([2]; 200 micrograms/kg subcutaneous every day for 15 days, day 15, vs saline, FIG. 35): statistically significant results of decreasing pain responses

Cc1cc(C(C)(C)C)c(O)c(C)c1CC1=NCCN1 [oxymetazoline]
pain behavioral response for thermal hyperalgesia ([1]; 0.1 mg/kg subcutaneous every day for 15 days, day 7, FIG. 37): statistically significant result of decreasing pain responses
pain behavioral response for thermal hyperalgesia ([1]; 0.3 mg/kg subcutaneous every day for 15 days, days 7 and 14, FIG. 37): statistically significant result of decreasing pain responses
pain behavioral response for mechanical allodynia ([2]; 0.1 mg/kg subcutaneous every day for 15 days, day 8 and 15, vs saline group, FIG. 38): decreasing pain responses
pain behavioral response for mechanical allodynia ([2]; 0.3 mg/kg subcutaneous every day for 15 days, day 8 and 15, vs saline group, FIG. 38): decreasing pain responses

CNC[C@H](O)c1cccc(O)c1 [phenylephrine]
pain behavioral response for thermal hyperalgesia ([1]; 2 mg/kg subcutaneous every day for 15 days, day 7, FIG. 37): statistically significant result of decreasing pain responses
pain behavioral response for thermal hyperalgesia ([1]; 10 mg/kg subcutaneous every day for 15 days, days 7 and 14, FIG. 37): statistically significant result of decreasing pain responses
pain behavioral response for mechanical allodynia ([2]; 10 mg/kg subcutaneous every day, day 8, vs saline, FIG. 38): decreased mechanical allodynia

Clc1ccc2nsnc2c1NC1=NCCN1 [tizanidine]
pain behavioral response for thermal hyperalgesia [1, 4]: statistically significant result of decreasing pain responses
pain behavioral response for mechanical allodynia ([2]; 100 micrograms/kg subcutaneous every day for 15 days, day 15, vs saline, FIG. 35): statistically significant results of decreasing pain responses
